According to ChEMBL document CHEMBL5360618, “PepScaf: Harnessing Machine Learning with In Vitro Selection toward De Novo Macrocyclic Peptides against IL-17C/IL-17RE Interaction” (J Med Chem, 2023):
pIC50: −log10 of the molar value. Positions of bridges follow the written chain, without caps; N, C: chain ends. Residues, ends and D or L forms follow the SMILES beside them.

Target: T1, IL17-RE-IL-17C (Homo sapiens, UniProt Q8NFR9+Q9P0M4)
T1 sequence (Q9P0M4 whole entry): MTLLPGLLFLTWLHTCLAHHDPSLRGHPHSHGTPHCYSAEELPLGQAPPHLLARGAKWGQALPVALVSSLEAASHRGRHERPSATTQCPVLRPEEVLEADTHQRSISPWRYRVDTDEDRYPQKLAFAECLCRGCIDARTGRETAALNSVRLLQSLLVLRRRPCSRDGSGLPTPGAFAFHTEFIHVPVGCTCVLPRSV
T1 sequence (Q8NFR9 whole entry): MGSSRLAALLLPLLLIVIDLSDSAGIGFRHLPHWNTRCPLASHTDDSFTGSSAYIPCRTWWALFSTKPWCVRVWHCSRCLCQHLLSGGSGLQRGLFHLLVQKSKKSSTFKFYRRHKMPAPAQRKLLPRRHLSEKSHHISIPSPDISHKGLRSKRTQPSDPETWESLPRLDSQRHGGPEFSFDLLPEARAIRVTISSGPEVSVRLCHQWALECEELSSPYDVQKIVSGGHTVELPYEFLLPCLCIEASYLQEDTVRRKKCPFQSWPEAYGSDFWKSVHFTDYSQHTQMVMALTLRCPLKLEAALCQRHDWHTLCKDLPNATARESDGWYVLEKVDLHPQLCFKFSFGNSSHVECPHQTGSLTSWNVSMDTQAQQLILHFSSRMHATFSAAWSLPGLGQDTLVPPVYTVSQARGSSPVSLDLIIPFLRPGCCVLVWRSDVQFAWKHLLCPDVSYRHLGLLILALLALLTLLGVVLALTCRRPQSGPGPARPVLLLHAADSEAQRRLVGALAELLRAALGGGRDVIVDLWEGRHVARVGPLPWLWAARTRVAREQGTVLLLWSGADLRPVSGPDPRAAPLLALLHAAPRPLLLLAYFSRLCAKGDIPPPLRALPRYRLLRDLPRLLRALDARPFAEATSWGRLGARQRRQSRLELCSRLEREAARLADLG
Test: Inhibition of IL-17C/IL-17RE interaction (unknown origin) incubated for 1.5 hrs by ELISA method
Type: protein-complex assay

Row | pIC50 | SMILES
1 | < 4.52 | CC[C@H](C)[C@@H]1NC(=O)[C@H](Cc2c[nH]c3ccccc23)NC(=O)[C@H](C)NC(=O)[C@H](CC(=O)O)NC(=O)[C@H](Cc2ccccc2)NC(=O)[C@H](Cc2c[nH]cn2)NC(=O)[C@H](Cc2ccc(O)cc2)NC(=O)CSC[C@@H](C(=O)NCC(N)=O)NC(=O)[C@H](CCC(N)=O)NC(=O)[C@H](CC(C)C)NC(=O)[C@H](CC(C)C)NC(=O)[C@H]([C@@H](C)O)NC(=O)[C@H](C)NC1=O ({CH2CO}-YHFDAWIATLLQCG-NH2; thioether N-13)
2 | < 4.52 | CC(C)C[C@@H]1NC(=O)[C@H](Cc2c[nH]c3ccccc23)NC(=O)[C@H](C)NC(=O)[C@H](CC(=O)O)NC(=O)[C@H](Cc2ccccc2)NC(=O)[C@H](Cc2c[nH]cn2)NC(=O)[C@H](Cc2ccc(O)cc2)NC(=O)CSC[C@@H](C(=O)NCC(=O)O)NC(=O)[C@H](CC(C)C)NC(=O)[C@H](Cc2ccc(O)cc2)NC(=O)[C@H](CC(=O)O)NC(=O)[C@H](CCCCN)NC1=O ({CH2CO}-YHFDAWLKDYLCG-OH; thioether N-12)
3 | < 4.52 | CC(C)C[C@@H]1NC(=O)[C@H](Cc2ccc(O)cc2)NC(=O)[C@H](CC(=O)O)NC(=O)[C@H](CCCCN)NC(=O)[C@H](CC(C)C)NC(=O)[C@H](Cc2c[nH]c3ccccc23)NC(=O)[C@H](C)NC(=O)[C@H](CC(=O)O)NC(=O)[C@H](Cc2ccccc2)NC(=O)[C@H](Cc2c[nH]cn2)NC(=O)[C@H](Cc2ccc(O)cc2)NC(=O)CSC[C@@H](C(=O)NCC(N)=O)NC(=O)CNC1=O ({CH2CO}-YHFDAWLKDYLGCG-NH2; thioether N-13)
4 | < 4.52 | CC(C)C[C@@H]1NC(=O)[C@H](Cc2c[nH]c3ccccc23)NC(=O)[C@H](C)NC(=O)[C@H](CC(=O)O)NC(=O)[C@H](Cc2ccccc2)NC(=O)[C@H](Cc2c[nH]cn2)NC(=O)[C@H](Cc2ccc(O)cc2)NC(=O)CSC[C@@H](C(=O)NCC(N)=O)NC(=O)[C@H](CC(C)C)NC(=O)[C@H](CC(C)C)NC(=O)[C@H]([C@@H](C)O)NC(=O)[C@H](CO)NC1=O ({CH2CO}-YHFDAWLSTLLCG-NH2; thioether N-12)
5 | < 4.52 | CC(C)C[C@@H]1NC(=O)[C@H](Cc2c[nH]c3ccccc23)NC(=O)[C@H](Cc2c[nH]cn2)NC(=O)[C@H](CC(=O)O)NC(=O)[C@H](Cc2ccccc2)NC(=O)[C@H](Cc2c[nH]cn2)NC(=O)[C@H](Cc2ccc(O)cc2)NC(=O)CSC[C@@H](C(=O)NCC(N)=O)NC(=O)[C@H](CC(C)C)NC(=O)[C@H](CC(C)C)NC(=O)[C@H](Cc2c[nH]cn2)NC(=O)[C@H](C)NC1=O ({CH2CO}-YHFDHWLAHLLCG-NH2; thioether N-12)
6 | < 4.52 | CC[C@H](C)[C@@H]1NC(=O)[C@H](CC(C)C)NC(=O)[C@H](C)NC(=O)[C@H](CC(C)C)NC(=O)[C@H](Cc2c[nH]c3ccccc23)NC(=O)[C@H](CC(N)=O)NC(=O)[C@H](CC(=O)O)NC(=O)[C@H](Cc2ccccc2)NC(=O)[C@H](Cc2c[nH]cn2)NC(=O)[C@H](Cc2ccc(O)cc2)NC(=O)CSC[C@@H](C(=O)NCC(N)=O)NC(=O)[C@H](CC(C)C)NC1=O ({CH2CO}-YHFDNWLALILCG-NH2; thioether N-12)
7 | < 4.52 | CC(C)C[C@@H]1NC(=O)[C@H](Cc2c[nH]c3ccccc23)NC(=O)[C@H](CC(N)=O)NC(=O)[C@H](CC(=O)O)NC(=O)[C@H](Cc2ccccc2)NC(=O)[C@H](Cc2c[nH]cn2)NC(=O)[C@H](Cc2ccc(O)cc2)NC(=O)CSC[C@@H](C(=O)NCC(N)=O)NC(=O)[C@H](CC(C)C)NC(=O)[C@H](Cc2ccccc2)NC(=O)[C@H](C(C)C)NC(=O)[C@H](CCCNC(=N)N)NC1=O ({CH2CO}-YHFDNWLRVFLCG-NH2; thioether N-12)
8 | < 4.52 | CC(C)C[C@@H]1NC(=O)[C@H](CC(C)C)NC(=O)[C@H](CCCCN)NC(=O)[C@H](CO)NC(=O)[C@H](CC(C)C)NC(=O)[C@H](Cc2c[nH]c3ccccc23)NC(=O)[C@H](CC(N)=O)NC(=O)[C@H](CC(=O)O)NC(=O)[C@H](Cc2ccccc2)NC(=O)[C@H](Cc2c[nH]cn2)NC(=O)[C@H](Cc2ccc(O)cc2)NC(=O)CSC[C@@H](C(=O)NCC(N)=O)NC(=O)[C@H](CC(=O)O)NC1=O ({CH2CO}-YHFDNWLSKLLDCG-NH2; thioether N-13)
9 | < 4.52 | CC(C)C[C@@H]1NC(=O)[C@H](Cc2c[nH]c3ccccc23)NC(=O)[C@H](CO)NC(=O)[C@H](CC(=O)O)NC(=O)[C@H](Cc2ccccc2)NC(=O)[C@H](Cc2c[nH]cn2)NC(=O)[C@H](Cc2ccc(O)cc2)NC(=O)CSC[C@@H](C(=O)NCC(N)=O)NC(=O)[C@H](CCCCN)NC(=O)[C@H](CC(C)C)NC(=O)[C@H](CCCNC(=N)N)NC(=O)[C@H](CCCCN)NC(=O)[C@H](C)NC1=O ({CH2CO}-YHFDSWLAKRLKCG-NH2; thioether N-13)
10 | < 4.52 | CC(C)C[C@@H]1NC(=O)[C@H](C)NC(=O)[C@H]([C@@H](C)O)NC(=O)[C@H](C)NC(=O)[C@H](CC(C)C)NC(=O)[C@H](Cc2c[nH]c3ccccc23)NC(=O)[C@H](CO)NC(=O)[C@H](CC(=O)O)NC(=O)[C@H](Cc2ccccc2)NC(=O)[C@H](Cc2c[nH]cn2)NC(=O)[C@H](Cc2ccc(O)cc2)NC(=O)CSC[C@@H](C(=O)NCC(N)=O)NC(=O)[C@H](CCCNC(=N)N)NC1=O ({CH2CO}-YHFDSWLATALRCG-NH2; thioether N-13)
11 | < 4.52 | CC[C@H](C)[C@@H]1NC(=O)[C@H](CCCNC(=N)N)NC(=O)[C@H](Cc2ccc(O)cc2)NC(=O)[C@H](C)NC(=O)[C@H](Cc2c[nH]cn2)NC(=O)[C@H](Cc2c[nH]cn2)NC(=O)[C@H](Cc2ccc(O)cc2)NC(=O)CSC[C@@H](C(=O)NCC(N)=O)NC(=O)CNC(=O)[C@H](CC(C)C)NC(=O)[C@H](CCC(=O)O)NC(=O)CNC(=O)[C@H](Cc2ccc(O)cc2)NC(=O)[C@H](CC(C)C)NC1=O ({CH2CO}-YHHAYRILYGELGCG-NH2; thioether N-14)
12 | 6.77 | CC[C@H](C)[C@@H]1NC(=O)[C@H](CCCNC(=N)N)NC(=O)[C@H](Cc2ccc(O)cc2)NC(=O)[C@H](Cc2ccccc2)NC(=O)[C@H](Cc2c[nH]cn2)NC(=O)[C@H](Cc2c[nH]cn2)NC(=O)[C@H](Cc2ccc(O)cc2)NC(=O)CSC[C@@H](C(=O)NCC(N)=O)NC(=O)CNC(=O)[C@H](CC(C)C)NC(=O)[C@H](CCC(=O)O)NC(=O)CNC(=O)[C@H](Cc2ccc(O)cc2)NC(=O)[C@H](CC(C)C)NC1=O ({CH2CO}-YHHFYRILYGELGCG-NH2; thioether N-14)
13 | 5.16 | CC[C@H](C)[C@@H]1NC(=O)[C@H](CCCNC(=N)N)NC(=O)[C@H](Cc2ccc(O)cc2)NC(=O)[C@H](Cc2c[nH]cn2)NC(=O)[C@H](Cc2c[nH]cn2)NC(=O)[C@H](Cc2c[nH]cn2)NC(=O)[C@H](Cc2ccc(O)cc2)NC(=O)CSC[C@@H](C(=O)NCC(N)=O)NC(=O)CNC(=O)[C@H](CC(C)C)NC(=O)[C@H](CCC(=O)O)NC(=O)CNC(=O)[C@H](Cc2ccc(O)cc2)NC(=O)[C@H](CC(C)C)NC1=O ({CH2CO}-YHHHYRILYGELGCG-NH2; thioether N-14)
14 | < 4.52 | CC[C@H](C)[C@@H]1NC(=O)[C@H](CCCNC(=N)N)NC(=O)[C@H](C)NC(=O)[C@H](Cc2ccc(O)cc2)NC(=O)[C@H](Cc2c[nH]cn2)NC(=O)[C@H](Cc2c[nH]cn2)NC(=O)[C@H](Cc2ccc(O)cc2)NC(=O)CSC[C@@H](C(=O)NCC(N)=O)NC(=O)CNC(=O)[C@H](CC(C)C)NC(=O)[C@H](CCC(=O)O)NC(=O)CNC(=O)[C@H](Cc2ccc(O)cc2)NC(=O)[C@H](CC(C)C)NC1=O ({CH2CO}-YHHYARILYGELGCG-NH2; thioether N-14)
15 | 5.40 | CC[C@H](C)[C@@H]1NC(=O)[C@H](CCCNC(=N)N)NC(=O)[C@H](Cc2ccccc2)NC(=O)[C@H](Cc2ccc(O)cc2)NC(=O)[C@H](Cc2c[nH]cn2)NC(=O)[C@H](Cc2c[nH]cn2)NC(=O)[C@H](Cc2ccc(O)cc2)NC(=O)CSC[C@@H](C(=O)NCC(N)=O)NC(=O)CNC(=O)[C@H](CC(C)C)NC(=O)[C@H](CCC(=O)O)NC(=O)CNC(=O)[C@H](Cc2ccc(O)cc2)NC(=O)[C@H](CC(C)C)NC1=O ({CH2CO}-YHHYFRILYGELGCG-NH2; thioether N-14)
16 | < 4.52 | CC[C@H](C)[C@@H]1NC(=O)[C@H](CCCNC(=N)N)NC(=O)[C@H](Cc2c[nH]cn2)NC(=O)[C@H](Cc2ccc(O)cc2)NC(=O)[C@H](Cc2c[nH]cn2)NC(=O)[C@H](Cc2c[nH]cn2)NC(=O)[C@H](Cc2ccc(O)cc2)NC(=O)CSC[C@@H](C(=O)NCC(N)=O)NC(=O)CNC(=O)[C@H](CC(C)C)NC(=O)[C@H](CCC(=O)O)NC(=O)CNC(=O)[C@H](Cc2ccc(O)cc2)NC(=O)[C@H](CC(C)C)NC1=O ({CH2CO}-YHHYHRILYGELGCG-NH2; thioether N-14)
17 | 6.40 | CC[C@H](C)[C@@H]1NC(=O)[C@H](C)NC(=O)[C@H](Cc2ccc(O)cc2)NC(=O)[C@H](Cc2ccc(O)cc2)NC(=O)[C@H](Cc2c[nH]cn2)NC(=O)[C@H](Cc2c[nH]cn2)NC(=O)[C@H](Cc2ccc(O)cc2)NC(=O)CSC[C@@H](C(=O)NCC(N)=O)NC(=O)CNC(=O)[C@H](CC(C)C)NC(=O)[C@H](CCC(=O)O)NC(=O)CNC(=O)[C@H](Cc2ccc(O)cc2)NC(=O)[C@H](CC(C)C)NC1=O ({CH2CO}-YHHYYAILYGELGCG-NH2; thioether N-14)
